# Read-outs that look alike come from different tables or passages of the source. Starred links: 1 amine or outer side, 2 acyl side, 3 side chain; linkers in the order of their positions; H or OH if unused. Non-standard residues stand in square brackets, D forms with d. Groups on a side chain read outwards from the residue. *: point of attachment. C20 diacid = O=C(O)CCCCCCCCCCCCCCCCCCC(=O)*; C18 diacid = O=C(O)CCCCCCCCCCCCCCCCC(=O)*; γGlu = O=C(O)[C@H](CCC(=O)[*:2])N[*:1]; εLys = N[C@@H](CCCCN[*:1])C(=O)[*:2]; hArg = N=C(N)NCCCC[C@H](N)C(=O)O; AEEA = NCCOCCOCC(=O)O; Aib = CC(C)(N)C(=O)O
# Key:
# Type in all cases: cell-based
# Conditions in all cases: CreLuc reporter gene assay
# hGLP1R = biological target: T1, hGLP1R (Homo sapiens, UniProt P43220); experiment: hGLP1R CreLuc reporter gene assay in 0.5% and 100% plasma
# T1 construct: expressed in transfected cells; host or cells: HEK-293 cells carrying a CRE-luciferase reporter gene
# Method in brief: (§1)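 Agonist EC50s came from 8-concentration curves over four decades, fitted by non-linear variable-slope regression of CRE-driven luciferase luminescence. Cells were exposed 4 h at 37 °C, in buffer with 0.5% human plasma or in 100% plasma; GIPR was expressed in CHO cells, GLP-1R and NPY2R in HEK cells.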
# hNPY2R = biological target: T2, hNPY2R (Homo sapiens, UniProt P49146); experiment: hNPY2R CreLuc reporter gene assay in 0.5% and 100% plasma
# T2 construct: expressed in transfected cells; host or cells: HEK-293 cells carrying a CRE-luciferase reporter gene
# T2 sequence (P49146 1-381): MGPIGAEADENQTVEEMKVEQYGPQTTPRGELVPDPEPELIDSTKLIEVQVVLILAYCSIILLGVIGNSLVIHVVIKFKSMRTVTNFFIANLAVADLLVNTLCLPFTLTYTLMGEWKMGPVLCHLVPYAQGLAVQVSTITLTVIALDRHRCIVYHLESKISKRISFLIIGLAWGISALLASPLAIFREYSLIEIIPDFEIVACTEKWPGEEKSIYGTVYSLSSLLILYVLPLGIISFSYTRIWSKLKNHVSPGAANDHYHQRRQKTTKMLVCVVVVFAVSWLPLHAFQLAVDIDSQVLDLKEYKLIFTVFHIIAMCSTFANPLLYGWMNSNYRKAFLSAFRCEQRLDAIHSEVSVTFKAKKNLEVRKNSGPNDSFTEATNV
# Method in brief: as §1
# hGIPR = biological target: T3, hGIPR (Homo sapiens, UniProt P48546); experiment: hGIPR CreLuc reporter gene assay in 0.5% and 100% plasma
# T3 construct: expressed in transfected cells; host or cells: CHO cells carrying a CRE-luciferase reporter gene
# T3 sequence (P48546 22-466): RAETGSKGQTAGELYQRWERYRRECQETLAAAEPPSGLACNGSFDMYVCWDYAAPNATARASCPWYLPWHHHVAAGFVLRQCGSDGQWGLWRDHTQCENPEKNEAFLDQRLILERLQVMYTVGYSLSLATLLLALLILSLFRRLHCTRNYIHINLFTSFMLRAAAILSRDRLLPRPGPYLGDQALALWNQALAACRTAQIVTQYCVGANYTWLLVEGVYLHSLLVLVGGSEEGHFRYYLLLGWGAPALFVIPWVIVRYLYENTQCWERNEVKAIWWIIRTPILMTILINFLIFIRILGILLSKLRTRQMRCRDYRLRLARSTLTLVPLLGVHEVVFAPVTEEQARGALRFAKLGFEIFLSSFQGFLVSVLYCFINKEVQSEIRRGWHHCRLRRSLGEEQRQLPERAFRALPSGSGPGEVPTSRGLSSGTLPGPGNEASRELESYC
# Method in brief: as §1
# [1] = 0.5% human plasma, read-out: hGLP1R 0.5% hP
# [2] = 0.5% human plasma, read-out: hNPY2R 0.5% hP
# [3] = 0.5% human plasma, read-out: hGIPR 0.5% hP
# [4] = 100% human plasma, read-out: hGIPR 100% hP
# [5] = 100% human plasma, read-out: hNPY2R 100% hP
# [6] = 100% human plasma, read-out: hGLP1R 100% hP
# T1 sequence (P43220 24-463): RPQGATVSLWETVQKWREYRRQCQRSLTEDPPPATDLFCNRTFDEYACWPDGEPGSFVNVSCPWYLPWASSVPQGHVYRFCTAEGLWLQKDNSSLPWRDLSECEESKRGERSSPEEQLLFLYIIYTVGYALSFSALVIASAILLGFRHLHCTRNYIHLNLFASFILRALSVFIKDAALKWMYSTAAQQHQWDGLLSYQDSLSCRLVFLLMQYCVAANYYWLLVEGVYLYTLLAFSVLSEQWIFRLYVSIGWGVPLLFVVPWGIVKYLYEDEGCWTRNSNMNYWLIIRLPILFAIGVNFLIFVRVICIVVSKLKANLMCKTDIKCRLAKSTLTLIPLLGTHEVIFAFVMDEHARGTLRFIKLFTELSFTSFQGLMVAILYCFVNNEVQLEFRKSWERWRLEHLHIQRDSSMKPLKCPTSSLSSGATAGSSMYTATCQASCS
EC50 (hGLP1R; [1]),EC50 (hNPY2R; [2]),EC50 (hGIPR; [3]),EC50 (hGIPR; [4]),EC50 (hNPY2R; [5]),EC50 (hGLP1R; [6]),Substance
0.18 nM,46 nM,0.28 nM,1.37 nM,,,"H-Y[Aib]EGTFTSDYSI[Aib]LEKQAQ[Aib]AFVEWLIK([εLys-γGlu-γGlu-γGlu-γGlu-γGlu-γGlu-C20 diacid])GGPSSGASLRHY[Aib]NWLTRQRY-NH2 [Compound 184, Y-Aib-E-G-T-F-T-S-D-Y-S-I-Aib-L-E-K-Q-A-Q-Aib-A-F-V-E-W-L-I-K(1,3)-G-G-P-S-S-G-A-S-L-R-H-Y-Aib-N-W-L-T-R-Q-R-Y-NH2.C20DA-gGlu-gGlu-gGlu-gGlu-gGlu-gGlu-eLys(1,2)]"
0.15 nM,13.7 nM,0.23 nM,1.37 nM,42.2 nM,,"H-Y[Aib]EGTFTSDYSI[Aib]LEKQAE[Aib]AFVQWLIK([εLys-γGlu-γGlu-γGlu-γGlu-γGlu-γGlu-C18 diacid])GGPSSGASLRHYYNWLTRQRY-NH2 [Compound 51, Y-Aib-E-G-T-F-T-S-D-Y-S-I-Aib-L-E-K-Q-A-E-Aib-A-F-V-Q-W-L-I-K(1,3)-GGPSSGASLRHYYNWLTRQRY-NH2.C18DA-gGlu-gGlu-gGlu-gGlu-gGlu-gGlu-eLys(1,2)]"
0.05 nM,10.2 nM,0.24 nM,0.31 nM,,2 nM,"H-Y[Aib]EGTFTSDYSI[Aib]LEKQAQ[Aib]AFVQWLIK([AEEA-AEEA-γGlu-γGlu-γGlu-γGlu-C18 diacid])GGPESGASLRHYYNWLTRQRY-NH2 [Compound 58, Y-Aib-E-G-T-F-T-S-D-Y-S-I-Aib-L-E-K-Q-A-Q-Aib-A-F-V-Q-W-L-I-K(1,3)-GGPESGASLRHYYNWLTRQRY-NH2.C18DA-gGlu-gGlu-gGlu-gGlu-OEG-OEG(1,2)]"
0.13 nM,,0.14 nM,1.18 nM,24.6 nM,,"H-Y[Aib]EGTFTSDYSI[Aib]LEKQAQ[Aib]AFVEWLIK([εLys-γGlu-γGlu-γGlu-γGlu-γGlu-γGlu-C20 diacid])GGPSSGASVRHYYNWLTRQRY-NH2 [Compound 117, Y-Aib-E-G-T-F-T-S-D-Y-S-I-Aib-L-E-K-Q-A-Q-Aib-A-F-V-E-W-L-I-K(1,3)-GGPSSGASVRHYYNWLTRQRY-NH2.C20DA-gGlu-gGlu-gGlu-gGlu-gGlu-gGlu-eLys(1,2)]"
0.25 nM,18.7 nM,0.12 nM,0.79 nM,,,"H-Y[Aib]EGTFTSDYSI[Aib]LEKQAQ[Aib]AFVEWLIK([AEEA-AEEA-γGlu-γGlu-γGlu-C18 diacid])GGPEEGASLRHYYNWLTRQRY-NH2 [Compound 248, Y-Aib-E-G-T-F-T-S-D-Y-S-I-Aib-L-E-K-Q-A-Q-Aib-A-F-V-E-W-L-I-K(1,3)-GGPEEGASLRHYYNWLTRQRY-NH2.C18DA-gGlu-gGlu-gGlu-OEG-OEG(1,2)]"
0.13 nM,11.8 nM,0.12 nM,,,,"H-Y[Aib]EGTFTSDYSI[Aib]LEKQAQ[Aib]AFVEWLIK([εLys-γGlu-γGlu-γGlu-γGlu-γGlu-γGlu-C20 diacid])GGPSSYESLRHYYNWLTRQRY-NH2 [Compound 50, Y-Aib-E-G-T-F-T-S-D-Y-S-I-Aib-L-E-K-Q-A-Q-Aib-A-F-V-E-W-L-I-K(1,3)-GGPSSYESLRHYYNWLTRQRY-NH2.C20DA-gGlu-gGlu-gGlu-gGlu-gGlu-gGlu-eLys(1,2)]"
0.36 nM,,0.15 nM,,19.1 nM,,"H-Y[Aib]EGTFTSDYSI[Aib]LEKQAQ[Aib]AFVEWLIK([εLys-γGlu-γGlu-γGlu-γGlu-γGlu-γGlu-C20 diacid])GGPSEYVSIRHYYNWLTRQRY-NH2 [Compound 42, Y-Aib-E-G-T-F-T-S-D-Y-S-I-Aib-L-E-K-Q-A-Q-Aib-A-F-V-E-W-L-I-K(1,3)-GGPSEYVSIRHYYNWLTRQRY-NH2.C20DA-gGlu-gGlu-gGlu-gGlu-gGlu-gGlu-eLys(1,2)]"
,18.6 nM,0.74 nM,,,17.2 nM,"H-Y[Aib]EGTFTSDYSI[Aib]LEKQAQ[Aib]AFVEWLIK([εLys-γGlu-γGlu-γGlu-γGlu-γGlu-γGlu-C20 diacid])GGPSEYVSLRHYYNWLTRQRY-NH2 [Compound 217, Y-Aib-E-G-T-F-T-S-D-Y-S-I-Aib-L-E-K-Q-A-Q-Aib-A-F-V-E-W-L-I-K(1,3)-GGPSEYVSLRHYYNWLTRQRY-NH2.C20DA-gGlu-gGlu-gGlu-gGlu-gGlu-gGlu-eLys(1,2)]"
0.07 nM,> 100 nM,0.09 nM,0.7 nM,,1.18 nM,"H-Y[Aib]EGTFTSDYSI[Aib]LEKQAQ[Aib]AFVEWLIK([εLys-γGlu-γGlu-γGlu-γGlu-γGlu-γGlu-C20 diacid])GGPSSGAS[Aib]RHYYNWLT[hArg]QR[dY]-NH2 [Compound 26, Y-Aib-E-G-T-F-T-S-D-Y-S-I-Aib-L-E-K-Q-A-Q-Aib-A-F-V-E-W-L-I-K(1,3)-G-G-P-S-S-G-A-S-Aib-R-H-Y-Y-N-W-L-T-hArg-Q-R-DTyr-NH2.C20DA-gGlu-gGlu-gGlu-gGlu-gGlu-gGlu-eLys(1,2)]"
0.13 nM,20.5 nM,0.28 nM,,,,"H-Y[Aib]EGTFTSDYSI[Aib]LEK(Ac)QAQ[Aib]AFVEWLIK([εLys-γGlu-γGlu-γGlu-γGlu-γGlu-γGlu-C20 diacid])GGPSSGASLRHYYNWLTRQRY-NH2 [Compound 192, Y-Aib-E-G-T-F-T-S-D-Y-S-I-Aib-L-E-KAc-Q-A-Q-Aib-A-F-V-E-W-L-I-K(1,3)-GGPSSGASLRHYYNWLTRQRY-NH2.C20DA-gGlu-gGlu-gGlu-gGlu-gGlu-glu-eLys(1,2)]"
0.11 nM,12.8 nM,0.16 nM,0.95 nM,28.2 nM,,"H-Y[Aib]EGTFTSDYSI[Aib]LEKQAQ[Aib]AFVQWLIK([AEEA-AEEA-γGlu-γGlu-γGlu-γGlu-γGlu-C18 diacid])GGPSEGASLRHYYNWLTRQRY-NH2 [Compound 246, Y-Aib-E-G-T-F-T-S-D-Y-S-I-Aib-L-E-K-Q-A-Q-Aib-A-F-V-Q-W-L-I-K(1,3)-GGPSEGASLRHYYNWLTRQRY-NH2.C18DA-gGlu-gGlu-gGlu-gGlu-gGlu-OEG-OEG(1,2)]"
0.25 nM,11.8 nM,0.4 nM,,35.3 nM,,"H-Y[Aib]EGTFTSDYSI[Aib]LEKQAQ[Aib]EFVQWLIK([γGlu-γGlu-γGlu-γGlu-γGlu-C18 diacid])GGPSEGASLRHYYNWLTRQRY-NH2 [Compound 141, Y-Aib-E-G-T-F-T-S-D-Y-S-I-Aib-L-E-K-Q-A-Q-Aib-E-F-V-Q-W-L-I-K(1,3)-GGPSEGASLRHYYNWLTRQRY-NH2.C18DA-gGlu-gGlu-gGlu-gGlu-gGlu(1,2)]"
0.19 nM,,0.11 nM,1.61 nM,107 nM,4.76 nM,"H-Y[Aib]EGTFTSDYSI[Aib]LEKQAQ[Aib]AFVEWLIK([εLys-γGlu-γGlu-γGlu-γGlu-γGlu-γGlu-C20 diacid])GGPSSPESLRHYYNWLTRQRY-NH2 [Compound 73, Y-Aib-E-G-T-F-T-S-D-Y-S-I-Aib-L-E-K-Q-A-Q-Aib-A-F-V-E-W-L-I-K(1,3)-GGPSSPESLRHYYNWLTRQRY-NH2.C20DA-gGlu-gGlu-gGlu-gGlu-gGlu-gGlu-eLys(1,2)]"
0.12 nM,13 nM,0.28 nM,1.15 nM,28.2 nM,,"H-Y[Aib]EGTFTSDYSI[Aib]LEKQAQ[Aib]AFVQWLIK([AEEA-AEEA-γGlu-γGlu-γGlu-γGlu-γGlu-C18 diacid])GGPSEPASLRHYYNWLTRQRY-NH2 [Compound 142, Y-Aib-E-G-T-F-T-S-D-Y-S-I-Aib-L-E-K-Q-A-Q-Aib-A-F-V-Q-W-L-I-K(1,3)-GGPSEPASLRHYYNWLTRQRY-NH2.C18DA-gGlu-gGlu-gGlu-gGlu-gGlu-OEG-OEG(1,2)]"
0.08 nM,12.2 nM,0.2 nM,1.25 nM,,,"H-Y[Aib]EGTFTSDYSI[Aib]LEKQAQ[Aib]AFVQWLIK([γGlu-γGlu-γGlu-γGlu-γGlu-C18 diacid])GGPSEGASLRHYYNWLTRQRY-NH2 [Compound 250, Y-Aib-E-G-T-F-T-S-D-Y-S-I-Aib-L-E-K-Q-A-Q-Aib-A-F-V-Q-W-L-I-K(1,3)-GGPSEGASLRHYYNWLTRQRY-NH2.C18DA-gGlu-gGlu-gGlu-gGlu-gGlu(1,2)]"

# — patent publication US20240247080A1, “GLP1/GIP/NPY2 RECEPTOR TRIPLE AGONISTS” (Boehringer Ingelheim International GmbH, priority 2022, published 2024)
